Test results: US20080096894A1, “Anti-Bacterial Compounds” (ASTON UNIVERSITY, priority 2005, published 2008)
Converted amounts (≈) assume the structure as drawn. Where two headings read alike, the source gives them in different places.

What was measured:
Test in all cases: MIC, agar dilution, multipoint inoculator
S. aureus = assay type: cell-based, Staphylococcus aureus; conditions: Staphylococcus aureus
Summary of the method: (§1)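 Each strain was spot-inoculated (10^4 CFU) onto Mueller Hinton agar plates carrying compound dilutions, using a multipoint device, and the MIC was recorded.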

MRSA = assay type: cell-based, methicillin-resistant Staphylococcus aureus
Summary of the method: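 Agar dilution MIC on Mueller Hinton agar, multipoint inoculator delivering 10^4 colony forming units per spot. MRSA values are ranges across ten clinical MRSA strains; S. aureus NCTC 6571 as reference strain.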

E. faecium = assay type: cell-based, Enterococcus faecium; conditions: Enterococcus faecium
Summary of the method: as §1

S. epidemisis = assay type: cell-based, Staphylococcus epidermidis; conditions: Staphylococcus epidermidis
Summary of the method: as §1

B. bronchiseptica = assay type: cell-based; conditions: Bordetella bronchiseptica, NCTC8344, 18 h
Summary of the method: as §1

E. faecalis = assay type: cell-based
Summary of the method: as §1

S. aboni = assay type: cell-based; conditions: S. aboni NCTC 6017; upper value of MIC reading
Summary of the method: as §1

S. haemolyticus = assay type: cell-based; conditions: Staphylococcus haemolyticus, 18 h
Summary of the method: as §1

S. maltophilia = assay type: cell-based; conditions: Stenotrophomonas maltophilia, NCTC10257, 18 h
Summary of the method: as §1

E. coli = assay type: cell-based, Escherichia coli; conditions: Escherichia coli, 18 h, upper value of MIC reading
Experimental: (§2) This activity was measured using a multipoint inoculator method as follows. The MIC for each compound was measured using an agar dilution method (Onda, H., et al., Int. J. Antimicrob. Agents. 18, 263 (2001)) (Mueller Hinton agar) by means of a multipoint inoculator delivering 10^4 colony forming units per spot.

K. pneumoniae = assay type: cell-based, Klebsiella pneumoniae; conditions: Klebsiella pneumoniae, 18 h
Experimental: as §2

S. marcesens = assay type: cell-based, Serratia marcescens; conditions: Serratia marcescens, 18 h
Experimental: as §2

P. auriginosa = assay type: cell-based, Pseudomonas aeruginosa; conditions: Pseudomonas aeruginosa, NCTC6749, 18 h; P. auriginosa NCTC 6749; upper value of MIC reading; read-out: MIC
Experimental: as §2

E. cloacae = assay type: cell-based, Enterobacter cloacae; conditions: Enterobacter cloacae, NCTC11582, 18 h
Experimental: as §2

Q: For `CN(C)c1ccc(/C=N/N=C(\N)c2ccncc2)c2ccccc12` [Compound 4PYdx, N^1-[(4-dimethylamino)-1-naphthylidene]-pyridine-4-carboxamidrazone], which MIC (S. aureus; 18 h) is on record?
A: 128 µg/mL (≈ 403 µM)

Q: What about the MIC (S. aureus; NCTC6571, 18 h) of the same compound?
A: 128 µg/mL (≈ 403 µM)

Q: What about the MIC (S. aureus; NCTC10788, 18 h) of the same compound?
A: 128 µg/mL (≈ 403 µM)

Q: What about the MIC (MRSA; MRSA Isolate 1, upper value of MIC reading, in µg/mL) of the same compound?
A: 128

Q: And the MIC (MRSA; MRSA Isolate 2, upper value of MIC reading, in µg/mL)?
A: 128

Q: What about the MIC (MRSA; MRSA Isolate 3, upper value of MIC reading, in µg/mL) of the same compound?
A: 128

Q: What about the MIC (MRSA; MRSA Isolate 4, upper value of MIC reading, in µg/mL) of the same compound?
A: 128

Q: And the MIC (MRSA; MRSA Isolate 5, upper value of MIC reading, in µg/mL)?
A: 128

Q: What about the MIC (MRSA; MRSA Isolate 6, upper value of MIC reading, in µg/mL) of the same compound?
A: 128

Q: And the MIC (MRSA; MRSA Isolate 8, upper value of MIC reading, in µg/mL)?
A: 128

Q: What about the MIC (MRSA; MRSA Isolate 9, upper value of MIC reading, in µg/mL) of the same compound?
A: 128

Q: And the MIC (MRSA; MRSA Isolate 10, upper value of MIC reading, in µg/mL)?
A: 128

Q: And the MIC (MRSA; Staphylococcus aureus, 18 h)?
A: 128 µg/mL (≈ 403 µM)

Q: What about the MIC (MRSA; Staphylococcus aureus, MRSA, 18 h, read-out: MRSA MIC range) of the same compound?
A: 64 to 128 µg/mL (≈ 202 to 403 µM)

Q: What about the MIC (E. faecium; 18 h) of the same compound?
A: 256 µg/mL (≈ 807 µM)

Q: What about the MIC (E. faecium; NCTC7171, 18 h) of the same compound?
A: 256 µg/mL (≈ 807 µM)

Q: What about the MIC (S. epidemisis; 18 h) of the same compound?
A: 128 µg/mL (≈ 403 µM)

Q: And the MIC (S. epidemisis; NCTC11047, 18 h, S. epidemisis NCTC 11047, upper value of MIC reading, read-out: MIC)?
A: 64 µg/mL (≈ 202 µM)

Q: And the MIC (B. bronchiseptica)?
A: 256 µg/mL (≈ 807 µM)

Q: And the MIC (E. faecalis; E. faecalis EBH1, upper value of MIC reading)?
A: 256 µg/mL (≈ 807 µM)

Q: And the MIC (E. faecalis; E. faecalis Isolate 1, upper value of MIC reading)?
A: 256 µg/mL (≈ 807 µM)

Q: And the MIC (E. faecalis; E. faecalis Isolate 2, upper value of MIC reading)?
A: 256 µg/mL (≈ 807 µM)

Q: What about the MIC (E. faecalis; E. faecalis Isolate 4, upper value of MIC reading) of the same compound?
A: 256 µg/mL (≈ 807 µM)

Q: And the MIC (E. faecalis; Enterococcus faecalis, 18 h)?
A: 256 µg/mL (≈ 807 µM)

Q: And the MIC (E. faecalis; Enterococcus faecalis, NCTC5957, 18 h)?
A: 256 µg/mL (≈ 807 µM)

Q: What about the MIC (S. aboni) of the same compound?
A: 32 µg/mL (≈ 101 µM)

Q: What about the MIC (S. haemolyticus) of the same compound?
A: 256 µg/mL (≈ 807 µM)

Q: What about the MIC (S. maltophilia) of the same compound?
A: 128 µg/mL (≈ 403 µM)

Q: What about the MIC (E. coli; E. coli W3110R+) of the same compound?
A: 128 µg/mL (≈ 403 µM)

Q: And the MIC (E. coli; E. coli W3110R−)?
A: 256 µg/mL (≈ 807 µM)

Q: What about the MIC (K. pneumoniae) of the same compound?
A: 256 µg/mL (≈ 807 µM)

Q: And the MIC (S. marcesens)?
A: 256 µg/mL (≈ 807 µM)

Q: And the MIC (P. auriginosa)?
A: 32 µg/mL (≈ 101 µM)

Q: What about the MIC (E. cloacae) of the same compound?
A: 256 µg/mL (≈ 807 µM)
